Results: publication PMC6286348, “Inhibitor binding mode and allosteric regulation of Na^+-glucose symporters” (Nature Communications, 2018)

Experiments:
[1] = test system: hSGLT1 S393A/C; parameters: method as in PMID 22159082; details: oocytes, 22 °C; cited from earlier work
[2] = test system: hSGLT1 S392A/C; parameters: method as in PMID 22159082; details: oocytes, 22 °C; cited from earlier work
[3] = target: T1, hSGLT2 A395T (Homo sapiens, UniProt P31639, A395T); assay: cell-based; details: poor expression; n = 4 oocytes
T1 construct: expressed in transfected cells; host or cells: Xenopus laevis oocytes injected with hSGLT2 A395T cRNA and MAP17 cRNA
T1 sequence (P31639 whole entry A395T, one chain of several): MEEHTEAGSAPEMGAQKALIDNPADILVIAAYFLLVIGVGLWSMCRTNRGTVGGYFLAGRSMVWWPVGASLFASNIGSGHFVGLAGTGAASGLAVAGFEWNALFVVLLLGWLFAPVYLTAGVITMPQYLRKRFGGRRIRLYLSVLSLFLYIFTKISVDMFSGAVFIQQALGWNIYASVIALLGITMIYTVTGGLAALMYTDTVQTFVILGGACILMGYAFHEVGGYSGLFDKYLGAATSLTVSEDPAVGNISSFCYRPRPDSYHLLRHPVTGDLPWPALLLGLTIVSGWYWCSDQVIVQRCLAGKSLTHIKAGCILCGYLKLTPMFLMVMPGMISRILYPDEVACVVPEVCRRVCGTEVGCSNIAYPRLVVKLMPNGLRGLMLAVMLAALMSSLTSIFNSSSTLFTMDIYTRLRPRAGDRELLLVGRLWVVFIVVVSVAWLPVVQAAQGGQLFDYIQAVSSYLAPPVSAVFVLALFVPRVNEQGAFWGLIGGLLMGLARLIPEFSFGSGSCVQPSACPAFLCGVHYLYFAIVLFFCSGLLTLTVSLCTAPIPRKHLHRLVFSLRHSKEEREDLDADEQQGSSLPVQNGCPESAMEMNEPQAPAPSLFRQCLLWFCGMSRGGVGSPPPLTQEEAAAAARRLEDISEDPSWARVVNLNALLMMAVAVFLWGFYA
Protocol: (§1) Xenopus laevis (Nasco) oocytes (V–VI) were prepared as previously described[20] and injected with 50 nl of cRNA (1 μg/μl). […] Briefly, oocytes were incubated for 30 min in the presence of 50 μM αMDG (5 μM [^14C]αMDG) in a buffer containing (in mM) 100 NaCl, 2 KCl, 1 MgCl2, 1 CaCl2, and 10 N-(2-hydroxyethyl)piperazine-N′-(2-ethanesulfonic acid) (HEPES)/Tris (pH 7.5). After incubation, oocytes were rinsed thoroughly with ice-cold buffer containing (mM) 100 choline Cl^–, 2 KCl, 1 MgCl2, 1 CaCl2, and 10 HEPES/Tris (pH 7.5), individually lysed with 5% sodium dodecyl sulfate, and assayed for radioactivity.
(§2) Injected oocytes were incubated at 18 °C, and after 3–4 days, two electrode voltage clamp experiments were performed as previously described. Briefly, SGLT inward glucose currents were measured as a function of the external Na^+ (0–100 mM NaCl), sugar (0–100 mM αMDG), and inhibitors (0.001–100 μM). Steady-state and hSGLT1 capacitive currents were recorded using voltage steps from a holding voltage, Vh of −60 mV, to voltages in the range of −180 to +50 mV in 20 mV increments. The apparent affinity of αMDG, K0.5, was estimated from plots of the inward current as a function of the external αMDG concentration. Under our experimental conditions, K0.5 is a close approximation of the αMDG binding constant to the Na^+-bound outward conformation of SGLT. The apparent affinity for Na^+, K0.5, was estimated from plots of the αMDG inward current as a function of external Na^+ concentration. For hSGLT1 the interpretation of K0.5 is more complex owing to the presence of two Na^+ binding sites. In this case, the K0.5 is a lumped coefficient for Na^+ binding to the two sites in the outward-facing hSGLT1 conformation. […] The Na^+-to-αMDG stoichiometry was determined from the reversal potential measurements using the Gibbs free energy as previously described. The stoichiometry determinations were reinforced by estimates of αMDG and Na^+ Hill coefficients, and in some cases, by measurement of ^22Na and [^14C]αMDG uptakes under voltage clamp, [21].

[4] = test system: hSGLT1 Q457C; parameters: method as in PMID 22159082; details: oocytes, 22 °C; cited from earlier work
[5] = test system: hSGLT1 Y290C; parameters: method as in PMID 22159082; details: oocytes, 22 °C; cited from earlier work
[6] = target: T2, hSGLT1 D268H (Homo sapiens, UniProt P13866, D268H); assay: SGLT current measurement in oocytes, hSGLT1 D268H; format: cell-based; details: 10 mM αMDG, Vm = −50 mV; oocytes, 22 °C
T2 construct: expressed in transfected cells; host or cells: Xenopus laevis oocytes injected with cRNA
T2 sequence (P13866 1-664 D268H): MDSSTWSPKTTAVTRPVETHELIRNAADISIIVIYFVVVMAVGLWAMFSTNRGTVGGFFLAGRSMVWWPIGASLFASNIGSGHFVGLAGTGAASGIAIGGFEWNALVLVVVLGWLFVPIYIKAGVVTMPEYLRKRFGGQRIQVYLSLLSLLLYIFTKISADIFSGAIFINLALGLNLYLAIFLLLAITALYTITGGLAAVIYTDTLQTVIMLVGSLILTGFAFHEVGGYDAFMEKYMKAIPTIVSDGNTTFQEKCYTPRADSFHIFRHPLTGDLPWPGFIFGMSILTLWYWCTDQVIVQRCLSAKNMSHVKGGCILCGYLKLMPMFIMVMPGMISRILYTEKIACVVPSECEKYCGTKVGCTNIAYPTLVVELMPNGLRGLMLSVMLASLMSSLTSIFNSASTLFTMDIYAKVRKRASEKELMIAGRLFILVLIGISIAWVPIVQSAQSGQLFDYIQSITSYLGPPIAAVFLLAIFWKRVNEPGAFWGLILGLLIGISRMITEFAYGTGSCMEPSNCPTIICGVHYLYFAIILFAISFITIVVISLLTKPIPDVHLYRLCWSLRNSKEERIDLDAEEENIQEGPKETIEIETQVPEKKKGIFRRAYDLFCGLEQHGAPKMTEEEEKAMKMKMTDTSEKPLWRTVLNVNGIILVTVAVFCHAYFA
Protocol: as §1
Injected oocytes were incubated at 18 °C, and after 3–4 days, two electrode voltage clamp experiments were performed as previously described. Briefly, SGLT inward glucose currents were measured as a function of the external Na^+ (0–100 mM NaCl), sugar (0–100 mM αMDG), and inhibitors (0.001–100 μM). Steady-state and hSGLT1 capacitive currents were recorded using voltage steps from a holding voltage, Vh of −60 mV, to voltages in the range of −180 to +50 mV in 20 mV increments. The apparent affinity of αMDG, K0.5, was estimated from plots of the inward current as a function of the external αMDG concentration. […] The Na^+-to-αMDG stoichiometry was determined from the reversal potential measurements using the Gibbs free energy as previously described. […]

[7] = target: T3, hSGLT2 wild-type (Homo sapiens, UniProt P31639); assay: SGLT current measurement in oocytes, hSGLT2 wild-type (MAP17 co-injected); format: cell-based; parameters: expressed in transfected cells; host or cells: Xenopus laevis oocytes injected with hSGLT2 cRNA and MAP17 cRNA; details: 22 °C
T3 sequence (P31639 1-672): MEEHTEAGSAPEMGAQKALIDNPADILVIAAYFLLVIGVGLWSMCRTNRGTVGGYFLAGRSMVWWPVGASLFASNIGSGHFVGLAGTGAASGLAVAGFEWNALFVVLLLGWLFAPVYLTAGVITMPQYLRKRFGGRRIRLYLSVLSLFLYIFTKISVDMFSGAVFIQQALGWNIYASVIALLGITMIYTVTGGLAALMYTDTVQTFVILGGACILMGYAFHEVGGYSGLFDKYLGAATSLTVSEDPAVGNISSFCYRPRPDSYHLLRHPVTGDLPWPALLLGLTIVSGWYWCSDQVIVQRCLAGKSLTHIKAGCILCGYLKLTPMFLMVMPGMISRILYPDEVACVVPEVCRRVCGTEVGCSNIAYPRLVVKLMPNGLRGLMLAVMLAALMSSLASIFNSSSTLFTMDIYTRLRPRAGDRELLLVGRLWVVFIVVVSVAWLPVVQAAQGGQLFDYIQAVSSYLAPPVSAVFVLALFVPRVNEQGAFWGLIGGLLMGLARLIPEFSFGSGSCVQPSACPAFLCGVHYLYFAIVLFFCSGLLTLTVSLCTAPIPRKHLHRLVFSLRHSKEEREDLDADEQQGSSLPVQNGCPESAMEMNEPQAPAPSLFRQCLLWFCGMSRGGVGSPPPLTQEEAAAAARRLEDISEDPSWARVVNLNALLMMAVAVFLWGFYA
T3 sequence (Q13113 1-114 partner): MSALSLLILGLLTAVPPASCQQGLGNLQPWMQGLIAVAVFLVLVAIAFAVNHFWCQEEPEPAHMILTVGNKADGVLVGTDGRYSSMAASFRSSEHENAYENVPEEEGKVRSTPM
Protocol: as §1, §2

[Na+] [Na^+]
K0.5 Na^+ [1]: 32 ± 3[20] mM
K0.5 Na^+ [2]: 122 ± 12[20] mM
K0.5 Na^+ [3]: 30 ± 10 mM
K0.5 Na^+ [4]: 34 ± 2[20] mM
K0.5 Na^+ [5]: 46 ± 5[20] mM
K0.5 Na^+ [6]: 17 ± 1.2 mM
K0.5 Na^+ [7]: 22 ± 1 mM
